In patent US8415342B2, “Besifloxacin ophthalmic composition for the treatment or control of infection” (Bausch & Lomb Incorporated, priority 2008, dated 2013):
pIC50: −log10 of the molar value. Where “and” joins values, the source holds several entries; their conditions need not be identical. Equal entries are not always repeated.

Key:
[1] = Safety pharmacology: in vivo cardiovascular effects after systemic dosing
Description: The in vivo cardiovascular effects, specifically, an increase in QT duration, following besifloxacin systemic dosing were only observed after doses that were at least 300 times the intended ocular daily dose. There was no change in heart rate, blood pressure, or cardiac conduction.

[2] = test system: S. aureus, S. pneumoniae, and H. influenzae; assay: Time-kill studies; assay type: cell-based; conditions: S. pneumoniae, and H. influenzae (data not shown)
Description: The success of in vivo antimicrobial action depends to a large extent on the host's defense mechanisms, which ultimately sequester and kill the microorganisms that have been reduced by the bacteriostatic/bactericidal action of the antibacterial agent. Thus, it is also of interest to profile the bactericidal activity of antimicrobial agents. The assessment of in vitro bactericidal activity can be accomplished in multiple ways, for example, the time-kill method or the determination of the minimum bactericidal concentration (MBC). […] Bactericidal agents are characterized by low MBC:MIC ratios.

[3] = test system: baseline pathogens of bacterial conjunctivitis patients; assay: MIC of baseline clinical trial isolates, Studies 373, 433, 434 (all species); assay type: cell-based
[4] = Binding to proteins in human plasma; assay type: in vitro ADME
Description: The relationship between the concentration of besifloxacin in human tear fluid and the concentration required for antimicrobial activity was quantified by calculating the ratios of Cmax/MIC90 and AUC24/MIC90. For the purpose of calculating these PK/PD ratios, a PK model was used to simulate besifloxacin concentrations with a TID dosing regimen. An additional consideration in this analysis is the potential role of protein binding, which could effectively lower the concentration of unbound (free) besifloxacin. The inhibitory effect of protein binding on antibacterial efficacy has been reported for β-lactams; however, there is no general consensus about the role of protein binding on the antibacterial activity of fluoroquinolones (Bergogne-Berezin, 2002; Craig & Ebert, 1989; Drusano, 1988; Merrikin et al., 1983; Turnidge, 1999; Zeitlinger et al., 2008). […] In order to evaluate the potential theoretical maximum impact of protein binding on besifloxacin activity, Cmax/MIC90 and AUC24/MIC90 ratios were calculated based on the PK estimates for total (bound and free) and free (unbound) besifloxacin (Table 10).

S. pneumoniae DNA gyrase [5] = molecular target: T1, S. pneumoniae DNA gyrase (Streptococcus pneumoniae serotype 4, UniProt P0A4L9+P72524); assay: Catalytic inhibition of purified DNA gyrase; assay type: biochemical
T1 sequence (P72524 whole entry): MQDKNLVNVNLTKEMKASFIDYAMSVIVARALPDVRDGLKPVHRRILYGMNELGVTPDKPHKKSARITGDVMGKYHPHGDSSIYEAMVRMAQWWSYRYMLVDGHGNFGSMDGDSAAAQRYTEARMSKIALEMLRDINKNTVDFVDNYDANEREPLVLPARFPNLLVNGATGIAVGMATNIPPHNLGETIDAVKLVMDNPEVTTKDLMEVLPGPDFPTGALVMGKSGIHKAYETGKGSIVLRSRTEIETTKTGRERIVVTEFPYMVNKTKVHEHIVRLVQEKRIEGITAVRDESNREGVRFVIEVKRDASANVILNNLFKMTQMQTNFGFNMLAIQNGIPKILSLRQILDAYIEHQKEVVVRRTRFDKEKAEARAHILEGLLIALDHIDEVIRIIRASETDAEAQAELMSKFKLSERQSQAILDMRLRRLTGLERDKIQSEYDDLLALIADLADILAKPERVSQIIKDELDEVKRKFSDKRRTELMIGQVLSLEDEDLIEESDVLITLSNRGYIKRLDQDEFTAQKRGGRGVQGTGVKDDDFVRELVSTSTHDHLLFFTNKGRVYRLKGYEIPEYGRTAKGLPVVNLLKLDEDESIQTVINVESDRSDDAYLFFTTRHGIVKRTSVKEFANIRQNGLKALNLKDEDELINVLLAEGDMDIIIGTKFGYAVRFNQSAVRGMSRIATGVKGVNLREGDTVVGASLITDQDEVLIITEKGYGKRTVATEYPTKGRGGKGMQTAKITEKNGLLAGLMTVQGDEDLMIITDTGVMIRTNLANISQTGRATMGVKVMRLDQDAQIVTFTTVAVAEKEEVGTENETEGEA
T1 sequence (P0A4L9 whole entry): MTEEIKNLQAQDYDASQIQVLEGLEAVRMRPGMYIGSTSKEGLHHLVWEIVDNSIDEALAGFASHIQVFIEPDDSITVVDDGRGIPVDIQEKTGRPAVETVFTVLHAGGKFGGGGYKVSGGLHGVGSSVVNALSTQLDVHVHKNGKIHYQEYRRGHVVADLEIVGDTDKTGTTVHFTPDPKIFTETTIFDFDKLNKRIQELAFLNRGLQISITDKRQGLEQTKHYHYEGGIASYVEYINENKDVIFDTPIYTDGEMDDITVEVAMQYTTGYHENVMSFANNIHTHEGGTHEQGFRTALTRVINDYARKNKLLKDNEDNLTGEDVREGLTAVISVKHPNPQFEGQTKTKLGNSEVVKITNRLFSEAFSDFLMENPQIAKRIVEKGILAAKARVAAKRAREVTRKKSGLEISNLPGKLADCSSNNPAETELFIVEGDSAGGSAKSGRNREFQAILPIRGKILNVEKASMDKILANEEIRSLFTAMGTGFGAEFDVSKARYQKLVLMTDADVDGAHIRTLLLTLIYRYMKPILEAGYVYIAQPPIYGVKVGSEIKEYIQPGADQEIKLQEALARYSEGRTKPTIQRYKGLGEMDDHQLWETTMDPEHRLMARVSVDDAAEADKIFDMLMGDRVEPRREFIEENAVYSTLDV

[6] = test system: baseline bacterial conjunctival pathogens; assay: Integrated species-specific microbial eradication, Studies 373, 433, 434; assay type: in vivo, human; conditions: for Microbial eradication rate / Microbial eradication rate (eradicated/total): culture-confirmed, as-treated population (Global); for microbial eradication rate, all species combined: Studies 373, 433, 434 integrated, global (US and Asia)
E. coli topoisomerase IV = E. coli topoisomerase IV (Escherichia coli, UniProt P0AFI2+P20083); assay: Catalytic inhibition of purified topoisomerase IV; assay type: biochemical; conditions: IC50 Topo IV, E. coli enzymes
Chain of E. coli topoisomerase IV (P0AFI2 whole entry): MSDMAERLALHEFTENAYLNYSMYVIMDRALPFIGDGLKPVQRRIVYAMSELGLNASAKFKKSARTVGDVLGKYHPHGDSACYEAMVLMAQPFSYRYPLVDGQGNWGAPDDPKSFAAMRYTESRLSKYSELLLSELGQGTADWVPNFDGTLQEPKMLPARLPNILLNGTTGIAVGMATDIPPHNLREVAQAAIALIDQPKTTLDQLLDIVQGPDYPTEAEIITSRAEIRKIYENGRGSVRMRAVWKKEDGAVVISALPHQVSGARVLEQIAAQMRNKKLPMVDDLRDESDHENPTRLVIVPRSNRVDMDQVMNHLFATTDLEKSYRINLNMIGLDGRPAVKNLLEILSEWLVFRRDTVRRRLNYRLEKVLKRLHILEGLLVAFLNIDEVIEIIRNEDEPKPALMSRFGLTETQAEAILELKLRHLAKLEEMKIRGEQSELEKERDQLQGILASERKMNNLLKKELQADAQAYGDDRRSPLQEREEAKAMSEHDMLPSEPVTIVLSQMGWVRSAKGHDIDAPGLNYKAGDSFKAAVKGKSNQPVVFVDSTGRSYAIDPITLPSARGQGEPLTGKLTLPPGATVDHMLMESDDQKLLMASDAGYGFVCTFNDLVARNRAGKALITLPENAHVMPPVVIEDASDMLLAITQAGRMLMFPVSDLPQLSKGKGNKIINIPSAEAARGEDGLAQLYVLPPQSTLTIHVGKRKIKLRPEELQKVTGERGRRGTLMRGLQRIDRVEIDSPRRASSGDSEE
Chain of E. coli topoisomerase IV (P20083 whole entry): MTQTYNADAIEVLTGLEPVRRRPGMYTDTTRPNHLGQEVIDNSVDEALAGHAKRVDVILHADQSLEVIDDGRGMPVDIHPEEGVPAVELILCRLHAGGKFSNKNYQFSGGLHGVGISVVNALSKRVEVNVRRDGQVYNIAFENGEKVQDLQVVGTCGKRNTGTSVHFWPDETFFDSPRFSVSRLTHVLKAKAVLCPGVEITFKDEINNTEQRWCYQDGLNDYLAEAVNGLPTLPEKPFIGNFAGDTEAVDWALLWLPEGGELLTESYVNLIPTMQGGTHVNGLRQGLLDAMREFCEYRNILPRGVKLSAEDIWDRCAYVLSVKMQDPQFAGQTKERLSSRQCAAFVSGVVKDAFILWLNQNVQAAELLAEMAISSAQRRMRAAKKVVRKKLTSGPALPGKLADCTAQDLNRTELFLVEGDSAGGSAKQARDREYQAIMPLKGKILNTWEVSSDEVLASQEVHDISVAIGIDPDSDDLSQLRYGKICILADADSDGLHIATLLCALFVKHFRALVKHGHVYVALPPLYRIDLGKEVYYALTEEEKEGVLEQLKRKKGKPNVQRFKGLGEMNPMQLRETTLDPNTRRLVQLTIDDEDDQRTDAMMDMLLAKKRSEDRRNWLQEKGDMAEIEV

[7] = Systemic exposure after topical ocular administration to humans; conditions: human, in vivo, topical or ocular; following topical administration to humans
Description: Topical ophthalmic use of besifloxacin is not expected to elicit any systemic effects.

bacterial conjunctivitis = assay: Study 373: besifloxacin ophthalmic suspension vs vehicle, TID 5 days; conditions: N = 60; for Clinical Resolution (2 indices), Resolution / Clinical Resolution (3 indices), No / Clinical Resolution (3 indices), Yes / Microbial Eradication, No / Microbial Eradication, Yes: ITT culture confirmed; for Clinical Resolution (2 indices), Non-resolution: missing or discontinued imputed as non-resolution
S. pneumoniae DNA gyrase [8] = molecular target: T1, S. pneumoniae DNA gyrase; assay: Cleavable complex stimulation (CC25), DNA gyrase; assay type: biochemical; conditions: S. pneumoniae enzymes; concentration that produces 25% linearization of the DNA
[9] = 1324 clinical isolates of all species, Studies 373, 433, 434
[10] = Gram-negative bacteria (438 clinical isolates)
[11] = Gram-positive bacteria (886 clinical isolates)
[12] = C. pseudodiphtheriticum, Visit 2
[13] = C. pseudodiphtheriticum, Visit 3
[14] = CDC coryneform group G, Visit 2
[15] = CDC coryneform group G, Visit 3
[16] = S. mitis group (only isolates identified as S. mitis or S. mitis group), Visit 2
[17] = S. mitis group (only isolates identified as S. mitis or S. mitis group), Visit 3
[18] = Visit 3 (Day 8 or 9), primary endpoint

N[C@@H]1CCCCN(c2c(F)cc3c(=O)c(C(=O)O)cn(C4CC4)c3c2Cl)C1 [Besifloxacin, (R)-(+)-(3-amino-2,3,4,5,6,7-hexahydro-1H-azepin-1-yl)-8-chloro-1-cyclopropyl-6-fluoro-1,4,-dihydro-4-oxo-3-quinolinecarboxylic acid]
dose at which an increase in QT duration was observed [1]: at least 300 times the intended ocular daily dose
heart rate, blood pressure, or cardiac conduction [1]: no change
bactericidal activity in time-kill studies [2]: confirmed the bactericidal activity
MIC50 [3, 9]: 0.06 µg/mL
MIC90 [3, 9]: 0.25 µg/mL
MIC50 [3, 10]: 0.03 µg/mL
MIC90 [3, 10]: 0.5 µg/mL
MIC50 [3, 11]: 0.06 µg/mL
MIC90 [3, 11]: 0.25 µg/mL
MIC90 ([3]; clinical isolates from Asia): 1 µg/mL
bound to proteins in human plasma [4]: approximately 40%
potency relative to ciprofloxacin and moxifloxacin (catalytic inhibition and cleavable complex stimulation) (S. pneumoniae DNA gyrase [5]; S. pneumoniae DNA gyrase): 4- to 16 fold
pIC50 (S. pneumoniae DNA gyrase [5]; S. pneumoniae enzymes): 5.60
difference between inhibitory concentrations for DNA gyrase and topoisomerase IV (S. pneumoniae DNA gyrase [5]; S. pneumoniae enzymes): 2.5 fold
Microbial eradication rate ([6]; All species, Visit 2): (92.2%)
Microbial eradication rate (eradicated/total) ([6]; All species, Visit 2): 606/656
Microbial eradication rate ([6]; All species, Visit 3): (88.4%)
Microbial eradication rate (eradicated/total) ([6]; All species, Visit 3): 580/656
Microbial eradication rate [6, 12]: (100.0%)
Microbial eradication rate (eradicated/total) [6, 12]: 6/6
Microbial eradication rate [6, 13]: (100.0%)
Microbial eradication rate (eradicated/total) [6, 13]: 6/6
Microbial eradication rate ([6]; C. striatum, Visit 2): (100.0%)
Microbial eradication rate (eradicated/total) ([6]; C. striatum, Visit 2): 5/5
Microbial eradication rate ([6]; C. striatum, Visit 3): (100.0%)
Microbial eradication rate (eradicated/total) ([6]; C. striatum, Visit 3): 5/5
Microbial eradication rate [6, 14]: (93.8%)
Microbial eradication rate (eradicated/total) [6, 14]: 15/16
Microbial eradication rate [6, 15]: (93.8%)
Microbial eradication rate (eradicated/total) [6, 15]: 15/16
Microbial eradication rate ([6]; Gram-negative, Visit 2): (92.3%)
Microbial eradication rate (eradicated/total) ([6]; Gram-negative, Visit 2): 193/209
Microbial eradication rate ([6]; Gram-negative, Visit 3): (90.0%)
Microbial eradication rate (eradicated/total) ([6]; Gram-negative, Visit 3): 188/209
Microbial eradication rate ([6]; Gram-positive, Visit 2): (92.2%)
Microbial eradication rate (eradicated/total) ([6]; Gram-positive, Visit 2): 412/447
Microbial eradication rate ([6]; Gram-positive, Visit 3): (87.7%)
Microbial eradication rate (eradicated/total) ([6]; Gram-positive, Visit 3): 392/447
Microbial eradication rate ([6]; H. influenzae, Visit 2): (91.0%)
Microbial eradication rate (eradicated/total) ([6]; H. influenzae, Visit 2): 152/167
Microbial eradication rate ([6]; H. influenzae, Visit 3): (88.6%)
Microbial eradication rate (eradicated/total) ([6]; H. influenzae, Visit 3): 148/167
Microbial eradication rate ([6]; M. lacunata, Visit 2): (100.0%)
Microbial eradication rate (eradicated/total) ([6]; M. lacunata, Visit 2): 5/5
Microbial eradication rate ([6]; M. lacunata, Visit 3): (80.0%)
Microbial eradication rate (eradicated/total) ([6]; M. lacunata, Visit 3): 4/5
Microbial eradication rate ([6]; S. aureus, Visit 2): (87.1%)
Microbial eradication rate (eradicated/total) ([6]; S. aureus, Visit 2): 81/93
Microbial eradication rate ([6]; S. aureus, Visit 3): (83.9%)
Microbial eradication rate (eradicated/total) ([6]; S. aureus, Visit 3): 78/93
Microbial eradication rate ([6]; S. epidermidis, Visit 2): (94.0%)
Microbial eradication rate (eradicated/total) ([6]; S. epidermidis, Visit 2): 47/50
Microbial eradication rate ([6]; S. epidermidis, Visit 3): (88.0%)
Microbial eradication rate (eradicated/total) ([6]; S. epidermidis, Visit 3): 44/50
Microbial eradication rate ([6]; S. hominis, Visit 2): (83.3%)
Microbial eradication rate (eradicated/total) ([6]; S. hominis, Visit 2): 5/6
Microbial eradication rate ([6]; S. hominis, Visit 3): (100.0%)
Microbial eradication rate (eradicated/total) ([6]; S. hominis, Visit 3): 6/6
Microbial eradication rate ([6]; S. lugdunensis, Visit 2): (100.0%)
Microbial eradication rate (eradicated/total) ([6]; S. lugdunensis, Visit 2): 5/5
Microbial eradication rate ([6]; S. lugdunensis, Visit 3): (100.0%)
Microbial eradication rate (eradicated/total) ([6]; S. lugdunensis, Visit 3): 5/5
Microbial eradication rate [6, 16]: (89.5%)
Microbial eradication rate (eradicated/total) [6, 16]: 17/19
Microbial eradication rate [6, 17]: (84.2%)
Microbial eradication rate (eradicated/total) [6, 17]: 16/19
Microbial eradication rate ([6]; S. oralis, Visit 2): (90.9%)
Microbial eradication rate (eradicated/total) ([6]; S. oralis, Visit 2): 10/11
Microbial eradication rate ([6]; S. oralis, Visit 3): (72.7%)
Microbial eradication rate (eradicated/total) ([6]; S. oralis, Visit 3): 8/11
Microbial eradication rate ([6]; S. pneumoniae, Visit 2): (92.8%)
Microbial eradication rate (eradicated/total) ([6]; S. pneumoniae, Visit 2): 142/153
Microbial eradication rate ([6]; S. pneumoniae, Visit 3): (86.3%)
Microbial eradication rate (eradicated/total) ([6]; S. pneumoniae, Visit 3): 132/153
Microbial eradication rate ([6]; S. salivarius, Visit 2): (100.0%)
Microbial eradication rate (eradicated/total) ([6]; S. salivarius, Visit 2): 5/5
Microbial eradication rate ([6]; S. salivarius, Visit 3): (80.0%)
Microbial eradication rate (eradicated/total) ([6]; S. salivarius, Visit 3): 4/5
microbial eradication rate, all species combined ([6]; Visit 2): 92.2%
microbial eradication rate, all species combined ([6]; Visit 3): 88.4%
pIC50 (E. coli topoisomerase IV): 4.64 and 4.60
Cmax [7]: ~0.4 ng/mL
Clinical Resolution (2 indices), Resolution (bacterial conjunctivitis; Visit 2 (Day 4 ± 1)): 20 (33.3) n (%)
Clinical Resolution (3 indices), No (bacterial conjunctivitis; Visit 2 (Day 4 ± 1)): 46 (76.7) n (%)
Clinical Resolution (3 indices), Yes (bacterial conjunctivitis; Visit 2 (Day 4 ± 1)): 14 (23.3) n (%)
Microbial Eradication, No (bacterial conjunctivitis; Visit 2 (Day 4 ± 1)): 6 (10.0) n (%)
Microbial Eradication, Yes (bacterial conjunctivitis; Visit 2 (Day 4 ± 1)): 54 (90.0) n (%)
Clinical Resolution (2 indices), Non-resolution (bacterial conjunctivitis; Visit 2 (Day 4 ± 1)): 40 (66.7) n (%)
Clinical Resolution (2 indices), Resolution (bacterial conjunctivitis; Visit 3 (Day 8 or 9)): 44 (73.3) n (%)
Clinical Resolution (3 indices), No (bacterial conjunctivitis; Visit 3 (Day 8 or 9)): 23 (38.3) n (%)
Microbial Eradication, No (bacterial conjunctivitis; Visit 3 (Day 8 or 9)): 6 (10.0) n (%)
Clinical Resolution (2 indices), Non-resolution (bacterial conjunctivitis; Visit 3 (Day 8 or 9)): 16 (26.7) n (%)
Clinical Resolution (3 indices), Yes (bacterial conjunctivitis; [18]): 37 (61.7) n (%)
Microbial Eradication, Yes (bacterial conjunctivitis; [18]): 54 (90.0) n (%)
CC25 Gyrase (S. pneumoniae DNA gyrase [8]): 2.5 μM and 1 μg/mL
